Assays:
[1] = target: T1, Macrophage metalloelastase (Homo sapiens, UniProt P39900); experiment: Dissociation Constants (KD) Measurements and Enzyme Inhibition Assay (IC50); conditions: pH 7; 25 °C
Experimental: The NMR experiments were performed to determine the binding affinity (KD) for the MMP-12 catalytic domain. The alteration of the chemical shifts induced on 2D 1H-15N HSQC upon the titration with the test compound was analyzed. The fit of the experimental data as a function of ligand concentration provided dissociation constant. The inhibition potency (IC50) was measured by fluorescent enzymatic assays. The compounds were evaluated for their ability to inhibit the hydrolysis of fluorescence-quenched peptide substrate. […] Fitting of hydrolysis rate as a function of inhibitor concentration provided IC50.

[2] = target: T1, Macrophage metalloelastase; experiment: Dissociation Constants (KD) Measurements; conditions: pH 7.2; 25 °C
Experimental: The NMR experiments were performed to determine the binding affinity (KD) for the MMP-12 catalytic domain. The alteration of the chemical shifts induced on 2D 1H-15N HSQC upon the titration with the test compound was analyzed. The fit of the experimental data as a function of ligand concentration provided dissociation constant.

Interstitial collagenase = target: T2, Interstitial collagenase (Homo sapiens, UniProt P03956); experiment: Inhibition Potency Measurements; conditions: pH 7; 25 °C
T2 sequence (P03956 whole entry): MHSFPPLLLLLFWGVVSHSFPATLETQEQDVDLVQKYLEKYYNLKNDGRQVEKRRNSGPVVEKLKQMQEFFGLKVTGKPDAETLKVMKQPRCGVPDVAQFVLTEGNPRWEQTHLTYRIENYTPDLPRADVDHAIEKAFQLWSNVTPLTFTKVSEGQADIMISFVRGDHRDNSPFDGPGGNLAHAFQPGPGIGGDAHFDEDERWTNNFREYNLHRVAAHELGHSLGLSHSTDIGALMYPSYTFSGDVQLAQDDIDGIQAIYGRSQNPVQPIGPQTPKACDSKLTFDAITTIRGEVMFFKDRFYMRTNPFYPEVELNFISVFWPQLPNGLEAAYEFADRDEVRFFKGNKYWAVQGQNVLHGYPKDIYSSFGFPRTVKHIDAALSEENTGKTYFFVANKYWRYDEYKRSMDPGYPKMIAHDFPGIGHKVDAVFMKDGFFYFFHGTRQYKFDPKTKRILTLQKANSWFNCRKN
Experimental: (§1) The inhibition potency (IC50) was measured by fluorescent enzymatic assays. The compounds were evaluated for their ability to inhibit the hydrolysis of fluorescence-quenched peptide substrate. […] Fitting of hydrolysis rate as a function of inhibitor concentration provided IC50.

Neutrophil collagenase = Neutrophil collagenase (Homo sapiens, UniProt P22894); experiment: Inhibition Potency Measurements; conditions: pH 7; 25 °C
Neutrophil collagenase, sequence (P22894 whole entry): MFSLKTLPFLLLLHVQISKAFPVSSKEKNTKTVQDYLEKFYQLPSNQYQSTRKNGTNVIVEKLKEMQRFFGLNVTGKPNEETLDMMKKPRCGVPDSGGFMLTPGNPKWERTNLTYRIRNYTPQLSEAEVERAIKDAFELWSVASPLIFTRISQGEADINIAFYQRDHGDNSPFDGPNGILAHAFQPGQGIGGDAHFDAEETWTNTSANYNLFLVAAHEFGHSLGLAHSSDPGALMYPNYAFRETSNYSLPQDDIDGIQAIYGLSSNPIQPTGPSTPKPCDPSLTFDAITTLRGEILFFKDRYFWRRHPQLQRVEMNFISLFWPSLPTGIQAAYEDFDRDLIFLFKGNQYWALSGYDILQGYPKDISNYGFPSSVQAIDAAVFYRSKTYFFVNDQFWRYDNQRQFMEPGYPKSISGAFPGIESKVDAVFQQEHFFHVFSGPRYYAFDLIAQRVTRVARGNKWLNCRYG
Experimental: as §1

Collagenase 3 = Collagenase 3 (Homo sapiens, UniProt P45452); experiment: Inhibition Potency Measurements; conditions: pH 7; 25 °C
Experimental: as §1

Matrilysin = target: T3, Matrilysin (Homo sapiens, UniProt P09237); experiment: Inhibition Potency Measurements; conditions: pH 7; 25 °C
T3 sequence (P09237 whole entry): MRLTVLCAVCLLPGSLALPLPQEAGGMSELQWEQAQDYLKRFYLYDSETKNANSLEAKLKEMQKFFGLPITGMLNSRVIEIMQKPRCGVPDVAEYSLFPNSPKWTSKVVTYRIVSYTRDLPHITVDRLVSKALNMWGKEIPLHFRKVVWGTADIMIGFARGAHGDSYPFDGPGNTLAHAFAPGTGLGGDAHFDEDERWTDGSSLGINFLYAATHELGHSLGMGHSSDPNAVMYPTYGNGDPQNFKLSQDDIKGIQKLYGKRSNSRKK
Experimental: as §1

Stromelysin-2 = Stromelysin-2 (Homo sapiens, UniProt P09238); experiment: Inhibition Potency Measurements; conditions: pH 7; 25 °C
Stromelysin-2, sequence (P09238 whole entry): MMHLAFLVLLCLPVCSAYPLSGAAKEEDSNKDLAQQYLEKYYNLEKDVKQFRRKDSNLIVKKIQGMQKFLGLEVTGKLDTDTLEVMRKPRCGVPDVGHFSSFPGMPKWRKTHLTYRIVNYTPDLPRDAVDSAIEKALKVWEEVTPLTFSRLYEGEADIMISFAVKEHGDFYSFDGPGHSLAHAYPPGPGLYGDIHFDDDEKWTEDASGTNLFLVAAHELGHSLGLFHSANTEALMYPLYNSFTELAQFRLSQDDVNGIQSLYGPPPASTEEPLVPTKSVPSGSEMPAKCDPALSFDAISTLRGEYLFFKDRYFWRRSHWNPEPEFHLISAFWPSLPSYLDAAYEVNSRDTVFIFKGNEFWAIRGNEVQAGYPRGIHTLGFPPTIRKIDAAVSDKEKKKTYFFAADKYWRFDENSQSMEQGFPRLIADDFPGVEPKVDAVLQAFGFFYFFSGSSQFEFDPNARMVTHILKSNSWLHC
Experimental: as §1

T1 sequence (P39900 whole entry, the tested form may be a part): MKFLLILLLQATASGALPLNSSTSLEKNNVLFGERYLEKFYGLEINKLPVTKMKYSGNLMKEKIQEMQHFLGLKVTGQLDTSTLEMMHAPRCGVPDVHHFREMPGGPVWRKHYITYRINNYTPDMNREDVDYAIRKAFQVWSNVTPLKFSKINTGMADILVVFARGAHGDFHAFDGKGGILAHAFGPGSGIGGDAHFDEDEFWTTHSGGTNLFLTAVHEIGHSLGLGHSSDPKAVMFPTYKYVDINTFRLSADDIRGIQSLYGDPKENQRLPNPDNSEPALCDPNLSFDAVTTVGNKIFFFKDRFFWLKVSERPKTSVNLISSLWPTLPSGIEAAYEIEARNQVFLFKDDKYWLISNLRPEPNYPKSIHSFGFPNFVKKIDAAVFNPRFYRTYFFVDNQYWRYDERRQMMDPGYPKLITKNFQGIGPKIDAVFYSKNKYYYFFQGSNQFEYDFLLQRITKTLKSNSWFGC

Compound | IC50 [1] [µM] | Kd [1] [µM] | Kd [2] [µM] | further results
O=C(O)[C@@H]1O[C@H]2CN(Cc3ccc(-c4ccccc4)cc3)C(=O)[C@@H]1O2 [(1R,5S,7R)-2-oxo-3-[(4-phenylphenyl)methyl]-6,8-dioxa-3-azabicyclo[3.2.1]octane-7-carboxylic acid] | 954 | > 1000 |  | 
O=C(O)[C@@H]1O[C@H]2CN(Cc3ccccc3)C(=O)[C@@H]1O2 [(1R,5S,7R)-3-benzyl-2-oxo-6,8-dioxa-3-azabicyclo[3.2.1]octane-7-carboxylic acid] |  |  | > 10000 | 
O=C(NO)[C@@H]1O[C@H]2CN(Cc3ccccc3)C(=O)[C@@H]1O2 [(1R,5S,7R)-3-benzyl-N-hydroxy-2-oxo-6,8-dioxa-3-azabicyclo[3.2.1]octane-7-carboxamide] |  |  | > 10000 | 
O=C(NO)[C@@H]1O[C@H]2CN(Cc3ccc(-c4ccccc4)cc3)C(=O)[C@@H]1O2 [(1R,5S,7R)-N-hydroxy-2-oxo-3-[(4-phenylphenyl)methyl]-6,8-dioxa-3-azabicyclo[3.2.1]octane-7-carboxamide] | 425 | > 500 |  | 
O=C(NCc1ccc(-c2ccccc2)cc1)[C@@H]1O[C@H]2CN(C(=O)NO)C[C@@H]1O2 [(1S,5S,7R)-3-N-hydroxy-7-N-[(4-phenylphenyl)methyl]-6,8-dioxa-3-azabicyclo[3.2.1]octane-3,7-dicarboxamide] |  |  |  | IC50 (Interstitial collagenase): 1180 µM; IC50 (Neutrophil collagenase): 513 µM; IC50 (Collagenase 3): 778 µM; IC50 (Matrilysin): 1510 µM; IC50 (Stromelysin-2): 865 µM
O=C(O)[C@@H]1O[C@H]2CN(Cc3ccc(-c4ccccc4)cc3)C[C@@H]1O2 [(1S,5S,7R)-3-[(4-phenylphenyl)methyl]-6,8-dioxa-3-azabicyclo[3.2.1]octane-7-carboxylic acid] | 835 | > 1000 |  | 
O=C(O)[C@@H]1O[C@H]2CN(Cc3ccccc3)C[C@@H]1O2 [(1S,5S,7R)-3-benzyl-6,8-dioxa-3-azabicyclo[3.2.1]octane-7-carboxylic acid] |  |  | > 10000 | 
O=C(NO)[C@@H]1O[C@H]2CN(Cc3ccc(-c4ccccc4)cc3)C[C@@H]1O2 [(1S,5S,7R)-N-hydroxy-3-[(4-phenylphenyl)methyl]-6,8-dioxa-3-azabicyclo[3.2.1]octane-7-carboxamide] | 399 | > 500 |  | 
CCOC(=O)C1CCN(C(=O)NO)CC1 [ethyl 1-(hydroxycarbamoyl)piperidine-4-carboxylate] |  |  | 3400 | 
